Results taken from US9585933B2, “Therapeutic use of peptide inhibitors of NADPH oxidase; aerosolization as a delivery mechanism” (University of Pittsburgh—Of the Commonwealth System of …, priority 2011, dated 2017).
Where no end group is shown, it is not given here.

Target: T1, Nox4 oxidase (COS-Nox4 lysate: hNox4, p22phox) (Homo sapiens, UniProt Q9NPH5)
T1 construct: expressed in transfected cells; host or cells: COS-22 cells (COS 7 with p22phox), stably transfected; cell lysate used
T1 sequence (Q9NPH5 1-578): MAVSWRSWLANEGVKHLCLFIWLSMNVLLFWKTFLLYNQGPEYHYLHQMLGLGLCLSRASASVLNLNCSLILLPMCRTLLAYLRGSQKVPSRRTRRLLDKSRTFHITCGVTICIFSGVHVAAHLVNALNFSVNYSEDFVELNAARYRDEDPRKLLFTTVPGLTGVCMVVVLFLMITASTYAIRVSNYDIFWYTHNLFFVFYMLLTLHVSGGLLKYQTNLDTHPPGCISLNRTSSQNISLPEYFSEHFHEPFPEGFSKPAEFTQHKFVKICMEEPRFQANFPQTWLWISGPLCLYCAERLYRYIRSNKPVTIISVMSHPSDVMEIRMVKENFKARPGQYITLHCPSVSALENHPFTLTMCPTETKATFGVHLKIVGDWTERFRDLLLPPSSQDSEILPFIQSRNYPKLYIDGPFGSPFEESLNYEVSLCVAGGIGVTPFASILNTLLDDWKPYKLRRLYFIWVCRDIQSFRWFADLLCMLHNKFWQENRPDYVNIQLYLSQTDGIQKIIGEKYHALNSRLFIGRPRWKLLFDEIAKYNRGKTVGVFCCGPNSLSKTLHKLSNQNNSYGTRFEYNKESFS
T1 sequence (P13498 2-195 partner limits assumed): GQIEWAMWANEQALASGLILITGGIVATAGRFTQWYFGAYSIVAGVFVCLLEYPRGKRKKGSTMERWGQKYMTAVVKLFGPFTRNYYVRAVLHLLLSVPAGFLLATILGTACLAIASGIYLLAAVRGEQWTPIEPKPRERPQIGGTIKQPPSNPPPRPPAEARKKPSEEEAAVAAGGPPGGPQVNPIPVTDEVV
Experiment: Amplex Red assay, H2O2 production in COS-Nox4 lysates
Format: biochemical
Conditions: for rate of H2O2 production, Amplex red oxidation: 0 μM control 80.4±3.1
Experimental: To test this hypothesis, the inhibitory activity of Nox2ds was assessed in cell-free assays using reconstituted systems expressing either Nox1, 2 or 4 oxidase. Nox 2 oxidase was recapitulated by stably transfecting COS 7 cells with Nox2, p22phox, p47phox, and p67phox (aka COS-Nox2). Nox1 oxidase was obtained by transfecting COS 7 cells with Nox1, p22phox, NOXO1 and NOXA1 (COS-Nox1), and Nox 4 oxidase was regenerated by transfection of COS 7 cells with Nox4 and p22phox. […] Our new data support selectivity of Nox2ds peptide in differentiating the contribution of Nox2 vs. Nox1 and Nox4 NADPH oxidase and its potential clinical use in ameliorating cardiopulmonary diseases.
Cell transfection was carried out using Lipofectamine LTX and Plus reagent (Invitrogen), according to the manufacturer's instructions. COS-22 cells were transiently cotransfected with pcDNA 3.1-hNox1, pCMVsport 6-hNOXA1, and pcDNA3.1-hNoxO1 (COS-Nox1/NOXO1/NOXA1 cells). Cells were used 24 h after transfection. For stable transfection of Nox4, COS-22 cells were transfected with pcDNA3.1/Hygro-hNox4 (COS-Nox4 cells). COS-Nox4 cells were selected in complete medium supplemented with 0.2 mg/ml hygromycin B and 1.8 mg/ml G418. Stable transfectants were maintained in culture under the same conditions. Adherent cells were harvested by incubating with 0.05% trypsin/EDTA for 5 min at 37° C. After addition of DMEM/10% FBS to neutralize the trypsin, the cells were pelleted by centrifugation at 1000 g for 5 min at 4° C. and used for the experiments.
Hydrogen peroxide (H2O2) generation was quantified in COS-Nox4 cell lysates by Amplex Red. H2O2-producing activity was quantified in […] using Amplex red. Briefly, COS-Nox4 cells (5×10^7 cells/nil) were disrupted in ice-cold disruption buffer (PBS containing 0.1 mM EDTA, 10% glycerol, protease inhibitor cocktail, and 0.1 mM PMSF) by freeze/thaw cycles as we described above. Incubation of COS-Nox4 cell lysate with Nox2ds was performed in assay buffer (25 mM Hepes, pH 7.4, containing 0.12 M NaCl, 3 mM KCl, 1 mM MgCl2, 0.1 mM Amplex red, and 0.32 U/ml HRP) for 5 min at room temperature on an orbital shaker (120 movements/min), before the addition of 36 μM NADPH, to initiate H2O2 production. […] Fluorescence measurements were made using a Biotek Synergy 4 hybrid multimode microplate reader with a 530/25-excitation and a 590/35-emission filter. A standard curve of known H2O2 concentrations was developed using the Amplex red assay (as per the manufacturer's instructions) and was used to quantify H2O2 production in the COS-Nox4 cell-free system. Nox4 activity was obtained by subtracting nontransfected COS-22 cell lysate activity from COS-Nox4 cell lysate activity. The reaction was monitored at room temperature for 10 min, and the emission increase was linear during this interval.
H2O2 production was initiated by the addition of NADPH and measured by Amplex Red for 10 min.

CSTRVRRQL-NH2 [Nox2ds, CSTRVRRQL]
inhibition of COS-Nox4 lysate H2O2 production (in words): did not inhibit | rate of H2O2 production, Amplex red oxidation (0.1 μM peptide): 74.3±2.1 nmol H2O2/min/10^7 cell lysate equivalents | rate of H2O2 production, Amplex red oxidation (0.3 μM peptide): 74.1±5.9 nmol H2O2/min/10^7 cell lysate equivalents | rate of H2O2 production, Amplex red oxidation (1 μM peptide): 82.3±3.4 nmol H2O2/min/10^7 cell lysate equivalents | rate of H2O2 production, Amplex red oxidation (3 μM peptide): 83.3±1.6 nmol H2O2/min/10^7 cell lysate equivalents
